Tests used:
[1] = test system: K. pneumoniae strains with elevated MICs to Polymyxin B; assay: MIC against strains with elevated MICs to Polymyxin B; assay type: cell-based, Klebsiella pneumoniae; conditions: Table 6D; for MIC K. pneumoniae 062: strain 062, elevated MIC to Polymyxin B; for MIC K. pneumoniae 063: strain 063, elevated MIC to Polymyxin B; for MIC K. pneumoniae 064: strain 064, elevated MIC to Polymyxin B; for MIC K. pneumoniae 655: strain 655, elevated MIC to Polymyxin B
How it was run: (§1)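 Polymyxin B-resistant isolates were inoculated from 0.5 McFarland suspensions of 18-24 hour Mueller-Hinton agar colonies. Testing was done twice per compound, and results disagreeing by over 2-fold were discarded as non-valid. For compounds assayed several times, the modal MIC is given.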

[2] = test system: A. baumannii; conditions: sole activity, Table 6C
[3] = test system: E. coli; conditions: sole activity, Table 6C
[4] = test system: A. baumanii strains with elevated MICs to Polymyxin B; assay: MIC against strains with elevated MICs to Polymyxin B; assay type: cell-based, Acinetobacter baumannii; conditions: Table 6D; for MIC A. baumannii 053: strain 053, elevated MIC to Polymyxin B; for MIC A. baumannii 056: strain 056, elevated MIC to Polymyxin B; for MIC A. baumannii 068: strain 068, elevated MIC to Polymyxin B; for MIC A. baumannii 070: strain 070, elevated MIC to Polymyxin B
How it was run: as §1

[5] = test system: P. aeruginosa; conditions: sole activity, Table 6C
[6] = test system: K. pneumoniae; conditions: sole activity, Table 6C
[7] = test system: P. aeruginosa strains with elevated MICs to Polymyxin B; assay: MIC against strains with elevated MICs to Polymyxin B; assay type: cell-based, Pseudomonas aeruginosa; conditions: Table 6D; for MIC P. aeruginosa 065: strain 065, elevated MIC to Polymyxin B; for MIC P. aeruginosa 066: strain 066, elevated MIC to Polymyxin B; for MIC P. aeruginosa 067: strain 067, elevated MIC to Polymyxin B
How it was run: as §1

[8] = test system: E. coli strains with elevated MICs to Polymyxin B; assay: as above; assay type: cell-based, Escherichia coli; conditions: Table 6D; for MIC E. coli 058: strain 058, elevated MIC to Polymyxin B; for MIC E. coli 059: strain 059, elevated MIC to Polymyxin B; for MIC E. coli 060: strain 060, elevated MIC to Polymyxin B; for MIC E. coli 061: strain 061, elevated MIC to Polymyxin B
How it was run: as §1

Row | Substance | MIC K. pneumoniae 062 [1] | MIC K. pneumoniae 063 [1] | MIC K. pneumoniae 064 [1] | MIC K. pneumoniae 655 [1] | MIC, A. baumannii ATCC BAA-747 [2] | MIC, A. baumannii NCTC 13424 [2] | MIC, E. coli ATCC 25922 [3] | MIC A. baumannii 053 [4] | MIC A. baumannii 056 [4] | MIC A. baumannii 068 [4] | MIC A. baumannii 070 [4] | MIC, P. aeruginosa ATCC 27853 [5] | MIC, P. aeruginosa CCUG 59347 [5] | MIC, K. pneumoniae ATCC 4352 [6] | MIC P. aeruginosa 066 [7] | MIC P. aeruginosa 067 [7] | MIC E. coli 058 [8] | MIC E. coli 059 [8] | MIC E. coli 060 [8] | MIC E. coli 061 [8] | other results
1 | trans-5-phenyl- piperidine-3- carbonyl L-Thr-L- Dap-polymyxin B heptapeptide [Example D84] | >64 micrograms/mL | 32 micrograms/mL | 8 micrograms/mL | 16 micrograms/mL | 0.06 micrograms/mL | 0.25 micrograms/mL | 0.25 micrograms/mL | >64 micrograms/mL | 32 micrograms/mL | 8 micrograms/mL | 16 micrograms/mL | 0.5 micrograms/mL | 0.5 micrograms/mL | 0.125 micrograms/mL | 2 micrograms/mL | >64 micrograms/mL | 4 micrograms/mL | 8 micrograms/mL | 4 micrograms/mL | 8 micrograms/mL | MIC, E. coli NCTC 13441 ([3]; E. coli NCTC 13441): 0.06 micrograms/mL; MIC P. aeruginosa 065 [7]: 8 micrograms/mL
2 | 3-aminomethyl- undecanoyl L- Thr-L-Dap- polymyxin B heptapeptide [Example D91] | 8 micrograms/mL | 16 micrograms/mL | 4 micrograms/mL | 8 micrograms/mL | 0.25 micrograms/mL | 0.5 micrograms/mL | 0.5 micrograms/mL | 8 micrograms/mL | 2 micrograms/mL | 2 micrograms/mL | 1 micrograms/mL | 0.5 micrograms/mL | 0.5 micrograms/mL | 0.25 micrograms/mL | 2 micrograms/mL | 16 micrograms/mL | 1 micrograms/mL | 0.5 micrograms/mL | 2 micrograms/mL | 4 micrograms/mL | 
3 | 3-aminomethyl- undecanoyl L- Thr-L-Dap- polymyxin B heptapeptide [Example D92] | 2 micrograms/mL | 8 micrograms/mL | 2 micrograms/mL | 4 micrograms/mL | 0.5 micrograms/mL | 0.25 micrograms/mL | 0.5 micrograms/mL | 8 micrograms/mL | 4 micrograms/mL | 1 micrograms/mL | 1 micrograms/mL | 0.25 micrograms/mL | 0.5 micrograms/mL | 0.25 micrograms/mL | 1 micrograms/mL | 8 micrograms/mL | 0.5 micrograms/mL | 0.5 micrograms/mL | 1 micrograms/mL | 4 micrograms/mL | MIC P. aeruginosa 065 [7]: 0.5 micrograms/mL
4 | (S)-4-amino-2- ((2- trifluoromethyben- zyl)amino)butanoyl L-Thr-L-Dap- polymyxin B heptapeptide [Example D88] | 32 micrograms/mL | 16 micrograms/mL | 1 micrograms/mL | 16 micrograms/mL | 0.06 micrograms/mL | 0.06 micrograms/mL | 0.06 micrograms/mL | >64 micrograms/mL | 32 micrograms/mL | 8 micrograms/mL | 16 micrograms/mL | 0.125 micrograms/mL | 0.5 micrograms/mL | 0.06 micrograms/mL | 1 micrograms/mL | >64 micrograms/mL | 2 micrograms/mL | 8 micrograms/mL | 4 micrograms/mL | 16 micrograms/mL | MIC P. aeruginosa 065 [7]: 0.25 micrograms/mL
5 | cis-5- (isobutylcarbamoyl) piperidine-3- carbonyl L-Thr-L- Dap-polymyxin B heptapeptide [Example D81] |  | 64 micrograms/mL | 16 micrograms/mL | 64 micrograms/mL | 0.03 micrograms/mL | 0.06 micrograms/mL | 0.06 micrograms/mL | 128 micrograms/mL | 32 micrograms/mL | 32 micrograms/mL | 32 micrograms/mL | 0.25 micrograms/mL | 0.5 micrograms/mL | 0.06 micrograms/mL | 16 micrograms/mL | >128 micrograms/mL | 8 micrograms/mL | 16 micrograms/mL | 8 micrograms/mL | 32 micrograms/mL | MIC, K. pneumoniae ATCC BAA-2146 ([6]; K. pneumoniae ATCC BAA-2146): 0.06 micrograms/mL; MIC P. aeruginosa 065 [7]: 2 micrograms/mL
6 | (S)-4-amino-2- (((S)-6- methyloctyl)amino) butanoyl polymyxin B nonapeptide [Example D90] | 16 micrograms/mL | 32 micrograms/mL | 4 micrograms/mL | 16 micrograms/mL | 0.25 micrograms/mL | 0.25 micrograms/mL | 0.25 micrograms/mL | 32 micrograms/mL | 8 micrograms/mL | 2 micrograms/mL | 2 micrograms/mL | 0.5 micrograms/mL | 0.25 micrograms/mL | 0.25 micrograms/mL | 8 micrograms/mL | 32 micrograms/mL | 2 micrograms/mL | 2 micrograms/mL | 2 micrograms/mL | 8 micrograms/mL | MIC P. aeruginosa 065 [7]: 0.25 micrograms/mL
